CC1(C)O[C@H]2CC(=O)OC[C@]23[C@H]2CC[C@@]4(C)[C@H](c5ccoc5)OC(=O)[C@H]5O[C@]54[C@]2(C)C(=O)C[C@@H]13
solubility (mole fraction)
Conditions | 283.2 K | 288.2 K | 293.2 K | 298.2 K | 303.2 K | 308.2 K | 313.2 K | 318.2 K | 323.2 K
in THF | 0.00242 | 0.00257 | 0.0028 | 0.00309 | 0.00327 | 0.0035 | 0.00408 | 0.00458 | 0.00486
in acetonitrile | 0.00272 | 0.00314 | 0.00349 | 0.00385 | 0.00454 | 0.00523 | 0.00628 | 0.00739 | 0.00857
in chloroform | 0.00425 | 0.00433 | 0.00447 | 0.00458 | 0.00479 | 0.00512 | 0.00531 | 0.0057 | 0.00599
in ethanol | 2.65e-05 | 2.93e-05 | 3.05e-05 | 3.53e-05 | 4.27e-05 | 5.48e-05 | 6.71e-05 | 8.49e-05 | 0.000101
in ethyl acetate | 0.000746 | 0.000761 | 0.000801 | 0.00085 | 0.00094 | 0.000979 | 0.00101 | 0.00119 | 0.00128
in isopropanol | 1.08e-05 | 1.25e-05 | 1.56e-05 | 1.79e-05 | 1.87e-05 | 2.25e-05 | 3.03e-05 | 3.47e-05 | 4.52e-05
in n-butanol | 1.53e-05 | 1.94e-05 | 2.01e-05 | 2.64e-05 | 2.91e-05 | 3.54e-05 | 4.23e-05 | 5.62e-05 | 7.25e-05
in n-butyl acetate | 0.000323 | 0.000349 | 0.000375 | 0.000413 | 0.000484 | 0.00053 | 0.000616 | 0.000646 | 0.00068

— BigSolDB 2.1
